According to US7183075B2, “Purified and isolated potassium-chloride cotransporter nucleic acids and polypeptides and therapeutic and screening methods using same” (Vanderbilt University, priority 2000, dated 2007):
Values belong to the compound of their own block, whether it stands above or below them.

Assays:
[1] = target: T1, mKCC4 (Mus musculus, UniProt Q9WVL3); assay: 86Rb+ uptake (K+-Cl- cotransport) in Xenopus oocytes injected with mKCC4 cRNA; format: cell-based; details: 10 mM potassium salt of anion substitute vs 10 mM KCl reference; hypotonic
T1 construct: a full-length mKCC4 cDNA was used as a standard in the Xenopus expression vector pGEMHE; expressed in transfected cells; host or cells: Xenopus laevis oocytes injected with cRNA (pGEMHE, T7 transcript)
T1 sequence (Q9WVL3 1-1083 L71X/L155X/L467X/L586X/L639X/L1023X): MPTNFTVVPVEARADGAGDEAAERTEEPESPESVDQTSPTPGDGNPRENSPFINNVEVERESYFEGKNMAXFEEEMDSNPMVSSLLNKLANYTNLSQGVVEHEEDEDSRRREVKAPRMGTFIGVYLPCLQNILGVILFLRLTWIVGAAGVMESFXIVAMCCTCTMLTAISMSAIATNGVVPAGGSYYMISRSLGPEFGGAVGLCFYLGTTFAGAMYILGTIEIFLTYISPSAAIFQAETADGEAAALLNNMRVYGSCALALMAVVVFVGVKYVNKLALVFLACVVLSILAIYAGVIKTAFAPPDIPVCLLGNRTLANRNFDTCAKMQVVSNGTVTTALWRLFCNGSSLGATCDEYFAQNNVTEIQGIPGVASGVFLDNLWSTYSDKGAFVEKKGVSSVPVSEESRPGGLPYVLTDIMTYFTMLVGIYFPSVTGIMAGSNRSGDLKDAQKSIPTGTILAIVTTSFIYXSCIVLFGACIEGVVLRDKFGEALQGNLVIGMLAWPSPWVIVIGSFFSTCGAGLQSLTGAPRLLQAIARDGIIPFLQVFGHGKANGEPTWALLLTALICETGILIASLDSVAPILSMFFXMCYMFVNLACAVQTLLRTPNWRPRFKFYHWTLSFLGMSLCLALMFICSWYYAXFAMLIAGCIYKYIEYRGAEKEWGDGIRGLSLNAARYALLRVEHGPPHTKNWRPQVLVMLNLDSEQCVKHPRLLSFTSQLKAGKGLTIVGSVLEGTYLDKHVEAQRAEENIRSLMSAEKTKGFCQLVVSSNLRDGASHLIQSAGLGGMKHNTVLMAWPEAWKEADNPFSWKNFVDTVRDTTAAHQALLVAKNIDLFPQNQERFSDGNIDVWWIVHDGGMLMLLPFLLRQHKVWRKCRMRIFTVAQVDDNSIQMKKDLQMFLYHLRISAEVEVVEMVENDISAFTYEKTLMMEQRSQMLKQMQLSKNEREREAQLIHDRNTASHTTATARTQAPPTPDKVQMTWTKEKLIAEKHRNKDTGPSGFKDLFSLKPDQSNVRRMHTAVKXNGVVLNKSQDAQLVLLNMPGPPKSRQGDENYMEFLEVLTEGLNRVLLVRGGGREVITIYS
Procedure: Oocytes were surgically collected from anesthetized female Xenopus adults under 0.17% tricaine and incubated for 1 hour with vigorous shaking in frog Ringer ND96 (96 mM sodium chloride, 2 mM potassium chloride, 1.8 mM calcium chloride, 1.0 mM magnesium chloride, and 5 mM Hepes/Tris, pH 7.4) in the presence of 2 mg/ml collagenase B. Oocytes were then washed four times in ND96, manually defolliculated, and incubated overnight in ND96 at 18° C. On the next day, defolliculated stage V–VI oocytes were injected with 50 nl of water or a solution containing cRNA at a concentration of 0.25–0.5 μg/μl (25 ng/oocyte). Oocytes were incubated at 17–18° C. in ND96 (96 mM sodium chloride, 2 mM potassium chloride, 1.8 mM calcium chloride, 1.0 mM magnesium chloride, and 5 mM Hepes/Tris, pH 7.4), supplemented with 2.5 mM sodium pyruvate and 5 mg/100 ml gentamicin, for 3–4 days. The incubation medium was changed every 24 hours. On the day of the experiment, oocytes were switched to Cl^−-free ND96 (96 mM Na^+ Na^+ isethionate, 2 mM K^+ gluconate, 6 mM Ca^2+ gluconate, 1 mM Mg^2+ gluconate, 5 mM Hepes, 2.5 mM sodium pyruvate, 5 mg/100 ml gentamicin, pH 7.4) for 2 hours prior to the uptake assay.
For functional expression and in vitro translation, a full-length mKCC4 cDNA was used as a standard in the Xenopus expression vector pGEMHE (Liman et al. (1992) Neuron 9:861–871). The resulting construct contains nucleotides 55–3812 of mKCC4 (SEQ ID NO:13). For functional comparison with mKCC4, a full-length rabbit KCC1 cDNA was subcloned into pGEMHE. […] […] Transcription product integrity was confirmed on agarose gels, and concentration was determined by absorbance reading at 260 nm (DU 640 available from Beckman of Fullerton, Calif.).
K^+—Cl^− cotransport was assessed by measuring tracer ^86Rb^+ uptake (NEN® Life Science Products of Boston, Mass.) in experimental groups of at least 15 oocytes. […] All uptake solutions also contained 1.8 mM CaCl2, 1 mM MgCl2, 5 mM Hepes, pH 7.4, and were supplemented with 1 mM ouabain and […] ^86Rb^+. Isotonic conditions were generated by supplementing the same solutions with 3.5 g/100 ml sucrose to reach isosmolar conditions for oocytes (˜210 mOsm/kg). Ouabain was added to prevent ^86Rb^+ uptake via the Na^+—K^+-ATPase. The absence of extracellular Na^+ and the hypotonicity of the uptake medium prevented ^86Rb^+ uptake via the endogenous Na^+—K^+-2Cl^− cotransporter that is present in oocytes (Gamba et al. (1994) J Biol Chem 269:17713–17722).
All uptake assays were performed at 32° C. At the end of the uptake period, oocytes were washed five times in ice-cold uptake solution without isotope to remove extracellular fluid tracer. Oocytes were dissolved in 10% SDS, and tracer activity was determined for each oocyte by β-scintillation counting.
To determine the ion transport kinetics of KCC4 and KCC1, ^86Rb^+ uptake experiments were performed in variable concentrations of K^+ and Cl^−. […]

[2] = system: KCC2^+/− heterozygous and wild type mice; assay: PTZ seizure induction in wild type and KCC2+/- mice; format: in vivo, mouse; details: daily 60 mg/kg PTZ
Procedure: A reduced threshold for induction of seizure activity was also observed in KCC2^+/− heterozygous mice. Seizures were induced in wild type and litter-matched KCC2^+/− mice by daily injections of 60 mg/kg pentylenetetrazole (PTZ), a blocker of the GABAA receptor. Animal behavior was observed during a one-hour interval following PTZ injection, and the severity of seizure induction was scored according to the following indicators: score=0, absence of seizure acitivity; score=1, ear and facial twitching; score=2, myoclonic body jerks; score=3, clonic forelimb convulsions […]; score=5, death. Mice assigned a score of 3, 4, or 5 were removed from the group. FIG. 34 summarizes the number of mice assigned a score of 1 or 2 as a function of time. A significant difference between wild type and KCC2^+/− heterozygous mice was observed, corresponding to an approximately 2-fold increase in the susceptibility of KCC2^+/− heterozygous mice to seizure activity.

[3] = target: T2, hKCC3a (Homo sapiens, UniProt Q9UHW9, L346X/L35X/L789X); assay: 86Rb+ uptake (K+-Cl- cotransport) in Xenopus oocytes injected with hKCC3a cRNA; format: cell-based
T2 construct: A full-length hKCC3a construct has also been generated for functional expression; expressed in transfected cells; host or cells: Xenopus laevis oocytes injected with cRNA
T2 sequence (Q9UHW9 1-1150 L35X/L346X/L789X): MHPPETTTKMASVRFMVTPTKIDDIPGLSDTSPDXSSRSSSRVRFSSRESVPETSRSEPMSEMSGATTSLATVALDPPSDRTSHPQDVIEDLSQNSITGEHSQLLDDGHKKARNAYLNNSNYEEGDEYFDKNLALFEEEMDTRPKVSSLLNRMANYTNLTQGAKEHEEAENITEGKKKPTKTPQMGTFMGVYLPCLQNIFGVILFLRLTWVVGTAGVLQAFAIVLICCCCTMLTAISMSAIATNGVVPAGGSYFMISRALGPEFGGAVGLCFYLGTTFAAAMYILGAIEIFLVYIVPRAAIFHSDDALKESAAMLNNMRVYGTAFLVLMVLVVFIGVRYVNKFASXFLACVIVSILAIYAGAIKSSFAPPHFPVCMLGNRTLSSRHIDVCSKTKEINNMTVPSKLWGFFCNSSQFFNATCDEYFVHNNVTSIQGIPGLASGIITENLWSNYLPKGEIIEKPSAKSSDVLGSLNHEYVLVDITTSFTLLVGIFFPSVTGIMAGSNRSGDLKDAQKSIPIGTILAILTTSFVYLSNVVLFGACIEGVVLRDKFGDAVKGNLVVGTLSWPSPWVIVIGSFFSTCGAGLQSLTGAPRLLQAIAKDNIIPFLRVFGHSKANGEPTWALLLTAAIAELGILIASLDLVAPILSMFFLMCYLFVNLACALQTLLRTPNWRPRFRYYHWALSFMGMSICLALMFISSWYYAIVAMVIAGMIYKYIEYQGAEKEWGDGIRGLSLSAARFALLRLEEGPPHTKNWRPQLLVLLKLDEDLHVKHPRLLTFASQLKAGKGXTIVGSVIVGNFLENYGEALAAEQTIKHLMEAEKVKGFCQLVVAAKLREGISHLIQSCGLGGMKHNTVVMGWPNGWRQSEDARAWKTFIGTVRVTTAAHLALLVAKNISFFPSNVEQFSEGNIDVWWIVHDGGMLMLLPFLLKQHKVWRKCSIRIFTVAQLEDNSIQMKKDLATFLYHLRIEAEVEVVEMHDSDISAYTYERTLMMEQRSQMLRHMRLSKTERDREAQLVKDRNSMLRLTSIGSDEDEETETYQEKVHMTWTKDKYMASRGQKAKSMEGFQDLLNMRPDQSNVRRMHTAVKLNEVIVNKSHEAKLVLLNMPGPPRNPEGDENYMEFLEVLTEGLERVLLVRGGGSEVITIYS

[4] = system: human red cell K^+—Cl^− cotransport; details: ML-7; physiological osmolality; cited from earlier work

86Rb+ influx in the presence of other anions, percentage of KCC4 function [1]: 22±5.9%
SMILES: O=P([O-])(O)O.[K+] [KH2PO4]

86Rb+ influx in the presence of other anions, percentage of KCC4 function [1]: 17±3.8%
SMILES: [I-].[K+] [KI]

SMILES: O=C([O-])[C@H](O)[C@@H](O)[C@H](O)[C@H](O)CO.[K+] [potassium gluconate]
86Rb+ influx in the presence of other anions, percentage of KCC4 function [1]: did not support transport

SMILES: C1CCc2nnnn2CC1 [PTZ, pentylenetetrazole]
percentage of deaths in response to PTZ injection ([2]; KCC2+/− heterozygous mice): Approximately 35%
percentage of deaths in response to PTZ injection ([2]; wild type mice): < 5%

86Rb+ influx in the presence of other anions, percentage of KCC4 function [1]: 58±9%
SMILES: [Br-].[K+] [KBr]

K+-Cl- cotransport (86Rb+ uptake) by KCC3a in the presence of ML-7 ([3]; 100 μM ML-7, 160 mOsm/kg): 1698±298 pmol/oocyte/hour
effect on hKCC3a K+-Cl- cotransport ([3]; ML-7, 180 mOsm/kg): modest activation
effect on K+-Cl- cotransport ([3]; ML-7, isotonic conditions): no effect
SMILES: O=S(=O)(c1cccc2c(I)cccc12)N1CCCNCC1 [ML-7]
effect on human red cell K+-Cl- cotransport [4]: modest activation

SMILES: N#C[S-].[K+] [KSCN]
86Rb+ influx in the presence of other anions, percentage of KCC4 function [1]: did not support transport
